Laboratory results published in patent US8946421B2, “Lipidated imidazoquinoline derivatives” (GlaxoSmithKline Biologicals S.A., priority 2008, dated 2015).

Columns and labels:
Assay type in all cases: in vivo
[1] = system: C57BL/6 (H2Kb), female mice; assay: antigen-specific CD4 T cell response, intracellular cytokine staining of PBLs after vaccination; conditions: liposome-based MPL and QS-21-containing formulation; vs control formulation; dose dependent; FIG. 4
Method: (§1) Formulation of the compounds for a comparison study requires taking into account the different molecular weights of the core and lipidated molecules, (e.g. 45 and 4.5 μg of the lipidated compound L3 corresponds to approximately to 15 and 1.5 μg of the corresponding core compound, “L3 core”), allowing for the side by side comparison of the corresponding groups in the study. Higher doses of L3 (200 μg) and of L3 core (150 μg) are also tested. In one such study formulations summarized and described below (table 1) are used to vaccinate 6-8 week old C57BL/6 (H2Kb), female mice (10/group). The mice receive two injections 14 days apart and are bled during weeks 1, 3 and 4 (for precise bleed days see FIG. 1). The mice are vaccinated intramuscularly. A heterologous prime/boost using recombinant adenovirus coding for the SIV-p27 protein and adjuvanted p27 are used as control groups, the adenovirus is injected at a dose of 5×10^8 VP. The study design is represented in FIG. 1. […]
(§2) The induction of antigen-specific CD8 and CD4 responses is assessed by measuring intracellular cytokines 7 days after the second injection. […] The secretion of cytokines is blocked by Brefeldin A and the presence of 3 cytokines (IFNγ, TNFα and IL2) is evaluated by flow cytometry after intracellular staining with appropriate antibodies.

[2] = system: C57BL/6 (H2Kb), female mice; assay: serum cytokine response after first injection; conditions: sera of mice 3 and 24 hrs after the first injection
Method: Formulation of the compounds for a comparison study requires taking into account the different molecular weights of the core and lipidated molecules, (e.g. 45 and 4.5 μg of the lipidated compound L3 corresponds to approximately to 15 and 1.5 μg of the corresponding core compound, “L3 core”), allowing for the side by side comparison of the corresponding groups in the study. Higher doses of L3 (200 μg) and of L3 core (150 μg) are also tested. In one such study formulations summarized and described below (table 1) are used to vaccinate 6-8 week old C57BL/6 (H2Kb), female mice (10/group). The mice receive two injections 14 days apart and are bled during weeks 1, 3 and 4 (for precise bleed days see FIG. 1). The mice are vaccinated intramuscularly. A heterologous prime/boost using recombinant adenovirus coding for the SIV-p27 protein and adjuvanted p27 are used as control groups, the adenovirus is injected at a dose of 5×10^8 VP. The study design is represented in FIG. 1.
Additional investigation illustrates the ability of lipidated TLR7/8 compounds to induce innate chemokines and pro-inflammatory cytokines among which type I IFN is known to be required for the programming of naïve CD8-T-cell (survival, differentiate and memory development). These cytokines are measured in the sera of mice 3 and 24 hrs after the first injection (FIGS. 5 and 6).

[3] = system: C57BL/6 (H2Kb), female mice; assay: p27-specific CD8 response, intracellular cytokine staining of PBLs after vaccination; conditions: 7 days after the second immunization; co-administered with MPL and QS-21 formulations; vs control formulation without TLR7/8L; intramuscular; FIG. 2
Method: as §1, §2

Q: Which results are given for CCCCCCCCCCCCCCCC(=O)OC[C@H](COP(=O)(O)OCCn1c(COCC)nc2c(N)nc3ccccc3c21)OC(=O)CCCCCCCCCCCCCCC [Compound L3, 4-Amino-1-[2-(1,2-dipalmitoyl-sn-glycero-3-phospho)ethyl]-2-ethoxymethyl-1H-imidazo[4,5-c]quinoline]?
A: p27-specific CD4 frequency [1]: increased; IL-6 in serum ([2]; added to QS21 and MPL): enhanced; TNFα in serum ([2]; added to QS21 and MPL): enhanced; IL-12p70 production in serum ([2]; with QS21 and MPL): Low IL-12p70 production, close to background level; Level of INFγ in serum ([2]; with QS21 and MPL): increased at low dose; IFNα in serum ([2]; with QS21 and MPL, FIGS. 5 and 6): in a dose-dependent manner and at higher level than for its core counterpart; p27-specific CD8 frequency [3]: clearly increased
